# Biological target: T1, purified STEP46 enzyme (Homo sapiens, UniProt P54829)
# T1 sequence (P54829 197-565 limits assumed): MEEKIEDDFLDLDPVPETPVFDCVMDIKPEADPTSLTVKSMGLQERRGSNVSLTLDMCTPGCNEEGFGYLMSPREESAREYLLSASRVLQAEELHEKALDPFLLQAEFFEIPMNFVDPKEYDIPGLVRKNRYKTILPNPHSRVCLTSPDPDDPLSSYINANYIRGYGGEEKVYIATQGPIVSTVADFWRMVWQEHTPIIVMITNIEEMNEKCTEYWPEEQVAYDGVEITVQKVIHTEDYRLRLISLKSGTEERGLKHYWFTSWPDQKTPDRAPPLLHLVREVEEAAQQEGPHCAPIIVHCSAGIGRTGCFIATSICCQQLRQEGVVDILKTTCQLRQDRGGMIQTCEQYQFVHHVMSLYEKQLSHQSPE
# Assay: STEP46 biochemical assay (DiFMUP fluorescence phosphatase assay)
# Conditions: DiFMUP 10 μM, read-out: STEP IC50
# Experimental: Serial dilutions of compounds were performed in 100% DMSO and 1 uL of compounds were dispensed into 384-well black polystyrene plates (Corning, N.Y.). Compounds were incubated with 24 uL of buffer containing 50 mM Hepes, 1 mM DTT, 0.02% Brij35, 1 ng/well purified STEP46 enzyme for […] at room temperature. The reaction was initiated by addition of 25 uL of DiFMUP (6,8-difluoro-4-methylumbelliferyl phosphate) (InVitrogen, CA) with a final concentration of 10 μM and incubated at 27° C. for 90 mM Final DMSO concentration is 2%. Plates were read with florescence intensity at excitation/emission of 360/460 nm using a PheraStar plate reader (BMG Labtech, NC).
# Data were expressed as percentage (%) inhibition of enzyme activity. 0% inhibition is defined as the RFUs (relative fluorescence units) in the absence of compounds and 100% inhibition is defined as RFUs in the absence of STEP46 enzyme. IC50 values of compounds with inhibitory activity against STEP46 were determined by GraphPad Prism (version 4.03) using four parameter logistic equation. Some compounds act as activators. For compounds showing STEP46 enzymatic activation, data are represented as percentage of inhibition but with negative values at three representative concentrations (25, 50 and 100 uM).
row,IC50 [µM],SMILES
1,1 to 10,CNc1nc(-c2cccnc2)nc2c(F)c(-c3ccoc3)ccc12 [Compound 530]
2,< 1,CC(Nc1nc(-c2cccnc2)nc2cc(-c3ccccc3F)ccc12)c1ccccn1 (stereo not shown) [Compound 371]
3,> 10,CNc1nc(-c2cccnc2)nc2ccc(-c3cnc(-c4ccccc4)s3)cc12 [Compound 464]
4,1 to 10,CNC(=O)C1CN(c2nc(-c3cccnc3)nc3ccc(-c4ccc(F)cc4F)cc23)C1 [Compound 423]
5,1 to 10,CC(Nc1nc(-c2cccnc2)nc2ccc(-c3cc(F)cc(F)c3)cc12)c1ccccc1 (stereo not shown) [Compound 349]
6,1 to 10,CNc1nc(-c2cccnc2)nc2cc(C)c(-c3ccc(F)c(F)c3F)cc12 [Compound 301]
7,1 to 10,CNc1nc(-c2cccnc2)nc2ccc(-c3ccc(F)cc3F)c(F)c12 [Compound 222]
8,> 10,CNc1nc(-c2cccnc2)nc2cc(-c3c(F)ccc(F)c3C)ccc12 [Compound 323]
9,1 to 10,Fc1ccc(Nc2nc(-c3cccnc3)nc3cc(Cl)ccc23)nc1 [Compound 52]
10,< 1,O=[N+]([O-])c1ccc2c(c1)CCN2c1nc(-c2cccnc2)nc2cc(-c3ccc(F)cc3F)ccc12 [Compound 104]
11,1 to 10,CNc1nc(-c2cccnc2)nc2ccc(-c3cccc(F)c3)c(F)c12 [Compound 223]
12,1 to 10,CNc1nc(-c2cccnc2)nc2c(F)c(-c3ccccc3F)ccc12 [Compound 513]
13,1 to 10,Cc1ccc2c(c1)CCN2c1nc(-c2cccnc2)nc2ccc(-c3cccc(F)c3)cc12 [Compound 78]
14,1 to 10,Clc1ccc2c(N3CCc4cccnc43)nc(-c3cccnc3)nc2c1 [Compound 62]
15,< 1,CNc1nc(-c2cccnc2)nc2ccc(-c3cccc(-c4ncco4)c3)cc12 [Compound 250]
16,1 to 10,CNc1nc(-c2cccnc2)nc2ccc(-c3ccc(S(C)(=O)=O)c(C(F)(F)F)c3)cc12 [Compound 199]
17,< 1,CNc1nc(-c2cccnc2)nc2ccc(-c3cccc(C(=O)Nc4nncs4)c3)cc12 [Compound 447]
18,> 10,CNc1nc(-c2cccnc2)nc2ccc(-c3nnc(C)s3)cc12 [Compound 472]
19,1 to 10,CCOc1ccc2nc(-c3ccnnc3)nc(Nc3ccccc3C(N)=O)c2c1 [Compound 71]
20,> 10,CNc1nc(-c2cccnc2)nc2c(OC)cc(-c3cccc(C#N)c3)cc12 [Compound 206]
21,1 to 10,Clc1ccc2c(c1)N(c1nc(-c3cccnc3)nc3ccc(Br)cc13)CC2 [Compound 23]
22,1 to 10,Fc1ccc(-c2ccc3nc(-c4cccnc4)nc(N4CCc5ccc(Cl)cc54)c3c2)cc1 [Compound 93]
23,< 1,Fc1ccc(-c2ccc3nc(-c4cccnc4)nc(-c4cncs4)c3c2)c(F)c1 [Compound 417]
24,< 1,CNc1nc(-c2cccnc2)nc2ccc(-c3ccc4c(c3)oc(=O)n4C)cc12 [Compound 470]
25,1 to 10,CNc1nc(-c2cccnc2)nc2cc(-c3cccc(OC)c3F)ccc12 [Compound 215]

row,IC50 [µM],SMILES
1,1 to 10,CNc1nc(-c2cccnc2)nc2cc(-c3c(F)cc(F)cc3F)ccc12 [Compound 454]
2,1 to 10,Cc1c(-c2cc(F)c(F)c(F)c2)ccc2c(N(C)C)nc(-c3cccnc3)nc12 [Compound 292]
3,1 to 10,COc1ccc2nc(-c3cccnc3)nc(-n3ccc4cccnc43)c2c1 [Compound 41]
4,1 to 10,CNc1nc(-c2cccnc2)nc2c(OC)cc(-c3ccccc3F)cc12 [Compound 254]
5,1 to 10,CNC(=O)COc1cc(F)cc(-c2ccc3c(NC)nc(-c4cccnc4)nc3c2)c1 [Compound 142]
6,> 10,Fc1ccc(CNc2nc(-c3cccnc3)nc3ccc(-c4cccc(F)c4F)cc23)cc1F [Compound 361]
7,1 to 10,CN(C)c1nc(-c2cccnc2)nc2cc(-c3cc(F)c(F)c(F)c3)ccc12 [Compound 313]
8,1 to 10,CNc1nc(-c2cncc(F)c2)nc2cc(-c3cc(F)ccc3F)ccc12 [Compound 157]
9,> 10,COc1ccc2nc(-c3cccnc3)nc(N3CCc4cc(Br)ccc43)c2c1 [Compound 6]
10,1 to 10,CNc1nc(-c2cccnc2)nc2cc(-c3ccc(F)cc3)c(F)cc12 [Compound 553]
11,1 to 10,CNc1nc(-c2cncc(C)c2)nc2cc(-c3cc(F)ccc3F)ccc12 [Compound 160]
12,> 10,CNc1nc(-c2cccnc2)nc2cc(-c3ccoc3)ccc12 [Compound 318]
13,< 1,CNc1nc(-c2cccnc2)nc2cc(F)c(-c3ccc(F)c(F)c3)cc12 [Compound 591]
14,1 to 10,Cc1ccc2c(c1)N(c1nc(-c3cccnc3)nc3ccc(-c4cccc(F)c4F)cc13)CC2 [Compound 446]
15,1 to 10,CC(Nc1nc(-c2cccnc2)nc2ccc(-c3ccccc3F)cc12)c1ccccc1 (stereo not shown) [Compound 603]
16,1 to 10,Cc1c(-c2ccc(C#N)cc2)ccc2c(N(C)C)nc(-c3cccnc3)nc12 [Compound 291]
17,1 to 10,CCOc1ccc2nc(-c3cccnc3)nc(Nc3cncc(C)c3)c2c1 [Compound 65]
18,1 to 10,Fc1ccc(F)c(-c2ccc3nc(-c4cccnc4)nc(NCCc4ccccn4)c3c2)c1 [Compound 339]
19,1 to 10,CNc1nc(-c2cccnc2)nc2c(F)cc(-c3cc(F)cc(F)c3)cc12 [Compound 569]
20,1 to 10,CNc1nc(-c2cccnc2)nc2c(F)c(-c3cc(F)ccc3F)ccc12 [Compound 514]
21,< 1,"CNc1nc(-c2cccnc2)nc2ccc(-c3ccc4sc(C)nc4c3)cc12 [Compound 169, N-methyl-6-(2-methylbenzo[d]thiazol-5-yl)-2-(pyridin-3-yl)quinazolin-4-amine, 2HCl]"
22,1 to 10,CCOc1cc(F)cc(-c2ccc3c(NC)nc(-c4cccnc4)nc3c2)c1 [Compound 145]
23,> 10,CCOc1cccc(-c2ccc3nc(-c4cccnc4)nc(NC)c3c2)c1F [Compound 242]
24,1 to 10,Fc1ccc(-c2ccc3nc(-c4ccnnc4)nc(NCc4ccccn4)c3c2)c(F)c1 [Compound 329]
25,1 to 10,CNc1nc(-c2cccnc2)nc2cc(-c3cccc(OCC(=O)N(C)C)c3)ccc12 [Compound 138]

row,IC50 [µM],SMILES
1,1 to 10,CNc1nc(-c2cccnc2)nc2ccc(-c3c(F)cccc3F)cc12 [Compound 458]
2,> 10,CNc1nc(-c2cccnc2)nc2cc(C)c(-c3ccc(F)c(OC)c3)cc12 [Compound 304]
3,1 to 10,Fc1ccc(-c2ccc3nc(-c4cccnc4)nc(N4CCc5cc(Cl)ccc54)c3c2)cc1 [Compound 86]
4,> 10,CNc1nc(-c2cccnc2)nc2ccc(-c3cccc(OC(C)C)c3)cc12 [Compound 257]
5,1 to 10,CNc1nc(-c2cccnc2)nc2cc(-c3cccc(C#N)c3)c(F)cc12 [Compound 556]
6,1 to 10,CNc1nc(-c2cccnc2)nc2ccc(-c3cc(F)nc(F)c3)cc12 [Compound 283]
7,1 to 10,CNc1nc(-c2cccnc2)nc2c(F)c(-c3csc4ccccc34)ccc12 [Compound 537]
8,> 10,CNc1nc(-c2cccnc2)nc2c(F)cc(-c3ccccc3OC)cc12 [Compound 566]
9,> 10,CNc1nc(-c2cccnc2)nc2c(OC)cc(-c3ccc(C#N)cc3)cc12 [Compound 260]
10,1 to 10,Fc1ccc2c(c1)N(c1nc(-c3cccnc3)nc3ccc(Br)cc13)CC2 [Compound 22]
11,1 to 10,CNc1nc(-c2cccnc2)nc2cc(F)c(-c3ccc(F)cc3)cc12 [Compound 587]
12,1 to 10,CNc1nc(-c2cccnc2)nc2cc(F)c(-c3ccc(C#N)cc3)cc12 [Compound 592]
13,1 to 10,CNc1nc(-c2cccnc2)nc2c(F)c(-c3ccc(F)cc3OC)ccc12 [Compound 543]
14,1 to 10,Fc1ccc(-c2ccc3nc(-c4cccnc4)nc(NCc4ccccn4)c3c2)cc1 [Compound 374]
15,< 1,CCOc1ccc2nc(-c3cccnc3)nc(Nc3cncc(Cl)c3)c2c1 [Compound 69]
16,1 to 10,Fc1ccc(-c2ccc3nc(-c4cccnc4)nc(Nc4ccccn4)c3c2)cc1 [Compound 437]
17,1 to 10,CNc1nc(-c2cccnc2)nc2c(OC)cc(-c3ccccc3C#N)cc12 [Compound 205]
18,1 to 10,CNc1nc(-c2cccnc2)nc2c(OC)cc(-c3cc(F)cc(F)c3)cc12 [Compound 204]
19,1 to 10,CNc1nc(-c2cccnc2)nc2ccc(-c3ccc(C)cc3F)cc12 [Compound 239]
20,1 to 10,CNc1nc(-c2cncc(OC)c2)nc2cc(-c3cc(F)ccc3F)ccc12 [Compound 162]
21,< 1,CNc1nc(-c2cccnc2)nc2c(F)c(-c3cc(F)c(F)c(F)c3)ccc12 [Compound 520]
22,> 10,FCCNc1nc(-c2cccnc2)nc2ccc(-c3cccc(F)c3F)cc12 [Compound 406]
23,1 to 10,CNc1nc(-c2cccnc2)nc2c(-c3cc(F)ccc3F)ccc(OC)c12 [Compound 497]

# — patent US20140315886A1, “QUINAZOLINES AS THERAPEUTIC COMPOUNDS AND RELATED METHODS OF USE” (OTSUKA PHARMACEUTICAL CO., LTD., priority 2011, published 2014)
